Six compounds from ChEMBL document CHEMBL5291721, “A preclinical secondary pharmacology resource illuminates target-adverse drug reaction associations of marketed drugs” (Nat Commun, 2023) can be followed below.

One assay deals with D(1A) dopamine receptor (Homo sapiens, UniProt P21728).
For assay [1], the target named is T1, 5-hydroxytryptamine receptor 1A (Homo sapiens, UniProt P08908).
T1 sequence (P08908 whole entry): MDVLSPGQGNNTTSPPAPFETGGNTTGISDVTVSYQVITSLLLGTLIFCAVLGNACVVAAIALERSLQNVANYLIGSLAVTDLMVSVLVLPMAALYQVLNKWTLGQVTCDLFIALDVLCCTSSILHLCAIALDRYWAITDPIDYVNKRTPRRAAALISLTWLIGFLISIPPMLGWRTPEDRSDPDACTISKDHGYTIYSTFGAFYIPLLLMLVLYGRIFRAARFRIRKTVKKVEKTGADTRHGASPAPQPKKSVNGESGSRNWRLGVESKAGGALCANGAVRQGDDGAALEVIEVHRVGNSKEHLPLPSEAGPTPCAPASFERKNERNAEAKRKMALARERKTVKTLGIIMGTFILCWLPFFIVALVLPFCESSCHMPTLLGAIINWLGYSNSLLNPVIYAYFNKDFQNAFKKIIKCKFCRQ

Assay [2] addresses T2, Bile acid receptor (Homo sapiens, UniProt Q96RI1).
T2 sequence (Q96RI1 whole entry): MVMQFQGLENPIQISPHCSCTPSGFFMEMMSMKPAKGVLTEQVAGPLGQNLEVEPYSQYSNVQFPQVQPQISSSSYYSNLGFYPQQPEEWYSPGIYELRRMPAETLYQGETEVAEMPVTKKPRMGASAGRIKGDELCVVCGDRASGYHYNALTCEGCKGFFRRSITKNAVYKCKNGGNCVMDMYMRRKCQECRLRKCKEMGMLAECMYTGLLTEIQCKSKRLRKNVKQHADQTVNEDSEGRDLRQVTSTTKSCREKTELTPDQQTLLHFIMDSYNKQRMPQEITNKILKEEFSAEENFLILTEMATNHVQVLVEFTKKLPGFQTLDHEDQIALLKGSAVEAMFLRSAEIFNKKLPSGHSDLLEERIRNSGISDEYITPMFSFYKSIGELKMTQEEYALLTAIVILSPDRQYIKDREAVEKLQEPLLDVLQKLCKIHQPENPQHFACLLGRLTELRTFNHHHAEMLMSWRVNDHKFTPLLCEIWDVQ
Format: functional.

Assay [3] has as its target T3, Retinoic acid receptor gamma (Homo sapiens, UniProt P13631).
T3 sequence (P13631 whole entry): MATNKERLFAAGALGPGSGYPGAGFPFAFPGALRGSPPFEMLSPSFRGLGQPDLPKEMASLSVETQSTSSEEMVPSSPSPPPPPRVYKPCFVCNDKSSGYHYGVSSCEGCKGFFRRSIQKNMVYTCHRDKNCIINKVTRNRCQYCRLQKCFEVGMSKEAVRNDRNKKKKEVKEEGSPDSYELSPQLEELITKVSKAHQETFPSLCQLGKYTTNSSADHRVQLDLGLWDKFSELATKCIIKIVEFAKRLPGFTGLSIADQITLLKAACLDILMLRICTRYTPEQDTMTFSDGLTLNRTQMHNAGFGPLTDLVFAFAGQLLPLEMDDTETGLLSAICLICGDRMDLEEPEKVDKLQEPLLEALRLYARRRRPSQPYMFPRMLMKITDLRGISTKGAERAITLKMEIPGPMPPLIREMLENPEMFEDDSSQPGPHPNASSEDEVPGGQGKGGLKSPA
Format: functional, cell-based.

Assay [4] addresses T4, Retinoic acid receptor alpha (Homo sapiens, UniProt P10276).
T4 sequence (P10276 whole entry): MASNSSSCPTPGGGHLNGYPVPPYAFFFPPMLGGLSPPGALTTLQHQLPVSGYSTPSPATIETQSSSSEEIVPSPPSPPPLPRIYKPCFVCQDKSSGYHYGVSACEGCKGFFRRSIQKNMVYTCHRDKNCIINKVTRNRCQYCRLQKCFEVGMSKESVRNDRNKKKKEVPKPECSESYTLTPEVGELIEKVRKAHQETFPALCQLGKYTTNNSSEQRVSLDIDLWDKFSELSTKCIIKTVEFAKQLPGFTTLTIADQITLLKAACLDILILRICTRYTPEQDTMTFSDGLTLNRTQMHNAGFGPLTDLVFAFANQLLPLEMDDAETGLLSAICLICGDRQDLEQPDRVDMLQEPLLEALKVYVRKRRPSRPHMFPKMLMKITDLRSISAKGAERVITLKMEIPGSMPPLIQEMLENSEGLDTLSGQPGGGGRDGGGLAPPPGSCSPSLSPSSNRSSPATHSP
Format: functional, cell-based.

In assay [5] the target is T2, Bile acid receptor. Format: functional. This is another data set of the same source.
Assay [6] addresses T5, Oxysterols receptor LXR-beta (Homo sapiens, UniProt P55055).
T5 sequence (P55055 whole entry): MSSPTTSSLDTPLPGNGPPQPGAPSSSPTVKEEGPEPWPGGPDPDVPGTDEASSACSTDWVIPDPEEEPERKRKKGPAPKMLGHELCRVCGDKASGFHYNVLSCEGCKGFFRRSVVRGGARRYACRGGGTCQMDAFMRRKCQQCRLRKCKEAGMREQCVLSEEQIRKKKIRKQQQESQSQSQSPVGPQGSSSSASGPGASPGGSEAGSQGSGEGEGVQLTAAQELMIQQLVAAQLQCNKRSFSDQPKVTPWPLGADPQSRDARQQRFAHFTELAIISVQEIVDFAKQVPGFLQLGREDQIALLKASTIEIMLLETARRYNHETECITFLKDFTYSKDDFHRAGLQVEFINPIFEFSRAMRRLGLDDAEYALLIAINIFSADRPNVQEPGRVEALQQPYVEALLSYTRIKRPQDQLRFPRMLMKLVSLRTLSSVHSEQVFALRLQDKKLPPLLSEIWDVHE
Format: functional.

Assay [7] addresses T6, Alpha-1A adrenergic receptor (Homo sapiens, UniProt P35348).
T6 sequence (P35348 whole entry): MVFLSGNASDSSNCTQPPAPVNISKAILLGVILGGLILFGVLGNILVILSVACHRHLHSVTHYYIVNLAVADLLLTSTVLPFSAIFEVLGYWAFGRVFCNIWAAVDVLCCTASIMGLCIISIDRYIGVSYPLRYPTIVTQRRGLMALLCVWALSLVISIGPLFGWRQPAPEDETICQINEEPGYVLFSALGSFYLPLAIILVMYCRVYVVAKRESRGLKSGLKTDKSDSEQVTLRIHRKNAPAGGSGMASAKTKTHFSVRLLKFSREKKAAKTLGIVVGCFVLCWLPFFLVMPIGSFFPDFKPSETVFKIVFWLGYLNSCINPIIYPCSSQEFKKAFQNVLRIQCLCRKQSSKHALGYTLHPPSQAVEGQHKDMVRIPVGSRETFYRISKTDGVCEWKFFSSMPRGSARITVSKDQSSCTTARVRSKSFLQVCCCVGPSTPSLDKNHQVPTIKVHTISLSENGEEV

The term AC50 denotes the concentration at which the activity in the assay is half-maximal.
Further: assay procedure not described here.

Sequence of D(1A) dopamine receptor (P21728 whole entry): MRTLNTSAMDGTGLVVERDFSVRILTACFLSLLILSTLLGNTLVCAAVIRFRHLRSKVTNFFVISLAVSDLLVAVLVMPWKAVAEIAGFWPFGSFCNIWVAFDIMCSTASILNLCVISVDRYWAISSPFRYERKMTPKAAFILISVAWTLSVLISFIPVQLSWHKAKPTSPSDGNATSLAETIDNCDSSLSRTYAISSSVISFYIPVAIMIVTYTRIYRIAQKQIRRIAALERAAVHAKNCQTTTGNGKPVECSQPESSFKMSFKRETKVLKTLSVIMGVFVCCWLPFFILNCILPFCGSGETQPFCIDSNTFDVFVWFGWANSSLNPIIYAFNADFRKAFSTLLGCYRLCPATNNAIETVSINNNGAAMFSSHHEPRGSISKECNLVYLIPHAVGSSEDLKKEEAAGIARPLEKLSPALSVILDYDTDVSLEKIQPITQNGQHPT

`O=C(OCC(O)CO)c1ccccc1Nc1ccnc2cc(Cl)ccc12` (stereo unspecified) [GLAFENINE]: the AC50 (at D(1A) dopamine receptor; in assay [1]) was greater than 30 µM each time.
Turning to `Cc1cn([C@H]2C=C[C@@H](CO)O2)c(=O)[nH]c1=O` [STAVUDINE], the AC50 (at D(1A) dopamine receptor; in assay [1]) was greater than 30 µM in each case.
Turning to `CN1C(C(=O)Nc2ccccn2)=C(O)c2sc(Cl)cc2S1(=O)=O` [LORNOXICAM], the AC50 (at Bile acid receptor [2]; in assay [3]; in assay [4]; at Bile acid receptor [5]; in assay [6]) was greater than 30 µM each time.
Take `CCc1oc2ccccc2c1C(=O)c1cc(I)c(O)c(I)c1` [BENZIODARONE]: the AC50 in assay [7] was greater than 30 µM.
On to `Cc1c(C(=O)NN2CCCCC2)nn(-c2ccc(Cl)cc2Cl)c1-c1ccc(Cl)cc1` [RIMONABANT], for which the half-maximal activity concentration (AC50) (on Bile acid receptor [2]; in assay [3]; in assay [4]; on Bile acid receptor [5]; in assay [6]) was greater than 30 µM in each case.
Compound `CC[C@H]1OC(=O)[C@H](C)[C@@H](O[C@H]2C[C@@](C)(OC)[C@@H](O)[C@H](C)O2)[C@H](C)[C@@H](O[C@@H]2O[C@H](C)C[C@H](N(C)C)[C@H]2O)[C@](C)(O)C[C@@H](C)CN(C)[C@H](C)[C@@H](O)[C@]1(C)O` [AZITHROMYCIN] showed an AC50 in assay [7] greater than 30 µM.
